Measured values taken from patent US20250051703A1, “EGG OPENER, EX OVO TUMOR XENOGRAFT METHOD, THERAPEUTIC COMPOUND ASSAY, THERAPEUTIC COMPOUND TESTING METHOD VIA EX OVO QUAIL EGG XENOGRAFT ASSAY” (CHILDREN'S CANCER THERAPY DEVELOPMENT INSTITUTE, priority 2021, published 2025).
pIC50: −log10 of the molar value. Entries after “also recorded” stand apart in the source; their conditions may differ.

What was measured:
[1] = tested on: murine glioma cell line GL261; details: literature (Yang, et al.); cited from earlier work
[2] = tested on: murine glioma cell line GL261; details: literature (Yang, et al.); cited from earlier work; remark: listed apart in the source
[3] = tested on: U48484 mouse rhabdomyosarcoma cells; assay: Quail tumor assay: U48484 tumor module xenograft on quail CAM, bioluminescence; type: in vivo
Method: U48484 mouse rhabdomyosarcoma cells were cultured, trypsinized and added to two different vials of hydrogel making a concentration of 10^6 cells per 50 μl. BEZ235 (cat #S1009, Selleck Chemicals, Houston, TX) in a solution of 0.1% DMF (cat #TS-20673, Thermo Fisher Scientific) in PBS was added to 10^6 U48484 mouse rhabdomyosarcoma cells mixed with 50 μl hydrogel for a final concentration of 500 nM BEZ235. For untreated eggs, 0.1% DMF in PBS was used as a control. 50 μl of cells/hydrogel/drug mixture were added to each scaffold and incubated for approximately 30-45 minutes at 37° C. and 100% humidity. As detailed above, a superficial injury was created on the chorioallantoic membrane and tumor module containing either drug or control was placed on top. Quail bearing tumor module models were incubated for 72 hours. Add the end of the incubation, 100 μl of PBS containing 1.5 mg of luciferin-d (cat #122799, PerkinElmer) was added to the 3D scaffold, incubated for 10 minutes in the dark, and bioluminescence was measured using a Fluorchem instrument (ProteinSimple, San Jose, CA). The quail were imaged with an 8 minute exposure for total light emission.
u48484 is a murine rhabdomyosarcoma cell line constitutively expressing firefly luciferase (available from the originating laboratory as described in Aslam et al, PDGFRβ reverses EphB4 signaling in alveolar rhabdomyosarcoma, Proc Natl Acad Sci USA. 2014 Apr. 29; 111 (17): 6383-8. doi: 10.1073/pnas. 1403608111; PMID 24733895), which is used to form a CAM xenograft as per the invention herein except being a non-human tumor cell line.
U48484 mouse rhabdomyosarcoma cells were cultured, trypsinized and added to two different vials of hydrogel making a concentration of 10^6 cells per 50 μl. […] Add the end of the incubation, 100 μl of PBS containing 1.5 mg of luciferin-d (cat #122799, Perkin Elmer) was added to the 3D scaffold, incubated for 10 minutes in the dark, and bioluminescence was measured using a Fluorchem instrument (Protein Simple, San Jose, CA). […]

[4] = tested on: Hep3B human hepatocellular carcinoma; details: literature (Li, et al.); cited from earlier work
[5] = tested on: HepG2 xenograft CAM assay; assay: Quail dose response assay (ex ovo CAM xenograft, osmotic bead drug depot), HepG2; type: in vivo, human; details: for dose-response in HepG2 xenograft CAM assay: FIGS. 18H and 18I, radiance
Method: (§1) The tumor modules for dose response assay are generated as described above but with 5×10^5 cells per 50 μl. Drug was dissolved in DMSO for all levels to a final tumor module concentration of vehicle control, 0.3 μM, 3 μM, or 30 μM with n=6. P-10 beads (catalog #1504144, Bio-Rad, Hercules, CA, USA) are soaked in PBS at the concentration of the modules for four hours at room temperature. Approximately 50 μl of bead solution is added to a 9.5×1.5 mm plastic ring placed on top of the tumor module forming a drug depot. The drug depot provided a constant source of drug keeping the tumor module at a constant concentration despite drug leaving the module for the quail, as shown in FIG. 17. The IR820 has an exponential range between 0.001 and 1 μM as shown in the dose-response curve of FIG. 17A in lumens v. IR820 concentration.
(§2) The quail with tumor module models and drug depots are incubated for 72 hours. Afterwards, 150 μl of 15 mg/ml luciferin (cat #122799, Perkin Elmer) in PBS is added to the modules incubated for 10 minutes and then imaged on an IVIS Lumina (PerkinElmer) for between 15 seconds (for cell lines HepG2) or 1 minute (for cell lines HB243 and HB282).
Validation assays are conducted to correlate murine and human cell lines across a range of biologicals and small molecule drugs for pediatric and adult cell lines. B16F10 is a murine melanoma cell line constitutively expressing firefly luciferase (available as cat #BW124734 from Perkin-Elmer, Akron, Ohio USA), which is used to form a CAM xenograft as per the invention herein with the difference of being an adult-type cancer cell line, and radiance reflecting cell viability as impaired by drug. In FIGS. 18A-18J, to analyze drug efficacy on tumor cells, luciferin is added to the scaffold and then imaged by a CCD camera to determine the total xenograft cell viability, with the results indicated as radiance (e.g., steradians/cm^2/s) on the Y axis. See also FIG. 1 at Step 14. […]

[6] = tested on: B16F10 murine melanoma cell line; assay: B16F10 xenograft CAM assay, radiance; type: in vivo; details: FIG. 18A
Method: Validation assays are conducted to correlate murine and human cell lines across a range of biologicals and small molecule drugs for pediatric and adult cell lines. B16F10 is a murine melanoma cell line constitutively expressing firefly luciferase (available as cat #BW124734 from Perkin-Elmer, Akron, Ohio USA), which is used to form a CAM xenograft as per the invention herein with the difference of being an adult-type cancer cell line, and radiance reflecting cell viability as impaired by drug. In FIGS. 18A-18J, to analyze drug efficacy on tumor cells, luciferin is added to the scaffold and then imaged by a CCD camera to determine the total xenograft cell viability, with the results indicated as radiance (e.g., steradians/cm^2/s) on the Y axis. See also FIG. 1 at Step 14.

[7] = tested on: e10 quail embryo liver and kidney; details: Japanese quail, in vivo
Method: Cediranib (Cat #S1017, Selleck Chemicals LLC, Houston, TX) and erlotinib (Cat #S7786) were purchased from Selleck Chemicals and reconstituted in dimethyl sulfoxide (DMSO) following the manufacturers recommendations and diluted to 10 mM stock concentration.
Fertilized Japanese quail eggs were incubated and plated as described previously. Quail were allowed to grow ex ovo in six-well plates until the quail had passed the patterning phase (e8 based on plating date). Each experimental arm was assigned n=4 viable quail and treated with one of four experimental conditions: vehicle, cediranib, ertoltinib, and cediranib+erlotinib. […] Stock concentrations were diluted in phosphate-buffered saline (PBS) to the respective target concentrations and to a final volume of 25 μL per agent. DMSO for vehicle was set at the DMSO volume used in the cediranib+erlotinib combination (8.4 μL DMSO).
Vehicle and diluted agents were subsequently applied dropwise to the quail chorioallantoic membrane. Quail were photographed at 0 hours, 24 hours, and 48 hours.

[8] = cited from earlier work
[9] = tested on: BT474 human breast cancer cell line; assay: BT474 xenograft CAM assay, radiance; type: in vivo; details: FIGS. 18C and 18D
[10] = tested on: HB243 hepatoblastoma cell line; assay: In vitro % viability dose-response, HB243; type: cell-based, human; details: n=4 replicates per point
HepG2 murine xenografts = assay: Murine in vivo xenograft study, HepG2; set-up: species or system mouse; details: FIG. 16F
Method: All studies in mice were performed after receiving approval from the institutional animal care and use committee (IACUC) at Children's Cancer Therapy Development Institute and in accordance with ARRIVE Guidelines. HepG2 and HB243 were suspended in Matrigel and injected into n=10 eight week-old female nod scid gamma mice per cell line xenograft (Charles River, Hollister, CA, NOD.CB17-Prkde^scid/NCrCrl) with 2×10^6 cells per 100 μl injection. […] The tumors were measured using calipers every 3 days and the equation for volume was V=L×W×H×0.5(π/6). At the study end or if the tumors reached 1.5 cc the tumors were removed and measured.
For the murine in vivo xenograft study survival analysis, the tumor endpoint volumes for time-to-event (TTE) analysis were set at 0.75 cc and were collected to 1.5 cc. […] Survival curve comparisons were analyzed using the Mantel-Cox and Gehan-Breslow-Wilcox tests (95% CI) through Graph Pad Prism 9.0 software. For the quail xenograft assay, significance was determined by an unpaired two-tailed t-test with Welch's correction and a p-value less than 0.05 was considered statistically significant. […]

[11] = tested on: HB282 hepatoblastoma cell line; assay: In vitro % viability dose-response, HB282; type: cell-based; details: Homo sapiens, n=4 replicates per point
HB243 murine xenografts = assay: Murine in vivo xenograft study, HB243; set-up: species or system mouse
Method: All studies in mice were performed after receiving approval from the institutional animal care and use committee (IACUC) at Children's Cancer Therapy Development Institute and in accordance with ARRIVE Guidelines. HepG2 and HB243 were suspended in Matrigel and injected into n=10 eight week-old female nod scid gamma mice per cell line xenograft (Charles River, Hollister, CA, NOD.CB17-Prkde^scid/NCrCrl) with 2×10^6 cells per 100 μl injection. […] Volasertib (cat #S2235, Selleck Chem) was suspended in 3.75% DMSO and corn oil (cat #C8267, Sigma-Aldrich, St Louis, MO) at a concentration of 1.5 mg/ml with 100 μl injected intraperitoneally with mice chosen for the drug and control group randomly selected to minimize selection bias. The mice were imaged by intraperitoneal injection of luciferin-d according to manufacturer's instructions. The tumors were measured using calipers every 3 days and the equation for volume was […]. At the study end or if the tumors reached 1.5 cc the tumors were removed and measured.
For the murine in vivo xenograft study survival analysis, the tumor endpoint volumes for time-to-event (TTE) analysis were set at 0.75 cc and were collected to 1.5 cc. TTE was defined in days by selecting the day in which the tumor volume equaled or surpassed 0.75 cc. […] The Kaplan-Meier survival plot represents the percentage of animals surviving at different time points during the study. These percentages were generated from the TTE data using GraphPad Prism 9.0 software (Graphpad Software, San Diego, CA, https://www.graphpad.com/scientific-software/prism/). Survival curve comparisons were analyzed using the Mantel-Cox and Gehan-Breslow-Wilcox tests (95% CI) through Graph Pad Prism 9.0 software. For the quail xenograft assay, significance was determined by an unpaired two-tailed t-test with Welch's correction and a p-value less than 0.05 was considered statistically significant. Error bars represent±standard error of the mean (SEM).

HB282 CAM xenograft = assay: Quail dose response assay (ex ovo CAM xenograft, osmotic bead drug depot), HB282; type: in vivo; details: Homo sapiens, osmotic bead delivery, 72 hours, read-out: 50% tumor growth inhibition (ex ovo IC50), HB282
Method: as §1, §2
(§3) The tumor modules for dose response assay were generated as described above but with 5×10^5 cells per 50 μl. […]

[12] = tested on: HepG2 hepatoblastoma cell line; assay: In vitro % viability dose-response, HepG2; type: cell-based; details: Homo sapiens, n=4 replicates per point
HB243 CAM xenograft = assay: Quail dose response assay (ex ovo CAM xenograft, osmotic bead drug depot), HB243; type: in vivo; details: Homo sapiens, osmotic bead delivery, 72 hours, read-out: 50% tumor growth inhibition (ex ovo IC50), HB243
Method: as §1, §2, §3

Compound: Cc1sc2c(c1C)C(c1ccc(Cl)cc1)=N[C@@H](CC(=O)Nc1ccc(OCCOCCOCCOCCNc3cccc4c3C(=O)N(C3CCC(=O)NC3=O)C4=O)cc1)c1nnc(C)n1-2 (stereo partly shown) [ARV-825]
- efficacy against GL261 in vivo [1]: showing efficacy
- efficacy against GL261 in vitro [2]: showing efficacy

Compound: Cn1c(=O)n(-c2ccc(C(C)(C)C#N)cc2)c2c3cc(-c4cnc5ccccc5c4)ccc3ncc21 [BEZ235]
- significance p, treated (n=6) vs vehicle control (n=4), tumor bioluminescence ([3]; FIG. 14, unpaired two-tailed t-test with Welch's correction): 0.0048
- inhibition of tumor growth in u48484 xenograft CAM assay ([3]; FIG. 18J): drug-related inhibition of tumor growth can be observed
- inhibition at 0.5 µM ([3]; Mus musculus, Rhabdomyosarcoma cell, 500 nM in the hydrogel volume, 72 hours on CAM, read-out: reduction in U48484 tumor module bioluminescence (tumor cell viability)): 20%

Compound: Cc1sc2c(c1C)C(c1ccc(Cl)cc1)=N[C@@H](CC(=O)OC(C)(C)C)c1nnc(C)n1-2 [JQ1]
- efficacy against Hep3B in vivo [4]: showed efficacy

Compound: Cc1ncsc1-c1ccc(CNC(=O)[C@@H]2C[C@@H](O)CN2C(=O)[C@@H](NC(=O)COCCOCCOCCNC(=O)C[C@@H]2N=C(c3ccc(Cl)cc3)c3c(sc(C)c3C)-n3c(C)nnc32)C(C)(C)C)cc1 [MZ1]
- dose-response in HepG2 xenograft CAM assay [5]: dose-response relationship can be observed
- dose-response in B16F10 xenograft CAM assay [6]: dose-response relationship exists

Compound: COc1cc2c(Oc3ccc4[nH]c(C)cc4c3F)ncnc2cc1OCCCN1CCCC1 [cediranib]
- remaining viable quail 48 hours after dosing [7]: 3
- maximum clinically-achievable serum concentrations (Cmax) in human patients [8]: 42 ng/mL

Compound: C#Cc1cccc(Nc2ncnc3cc(OCCOC)c(OCCOC)cc23)c1 [erlotinib]
- remaining viable quail 48 hours after dosing [7]: 3
- maximum clinically-achievable serum concentrations (Cmax) in human patients [8]: 1300 ng/mL

Compound: CS(=O)(=O)CCNCc1ccc(-c2ccc3ncnc(Nc4ccc(OCc5cccc(F)c5)c(Cl)c4)c3c2)o1 [lapatinib]
- dose-response in BT474 xenograft CAM assay [9]: dose-response relationship

Compound: CC[C@@H]1C(=O)N(C)c2cnc(Nc3ccc(C(=O)N[C@H]4CC[C@H](N5CCN(CC6CC6)CC5)CC4)cc3OC)nc2N1C(C)C [volasertib]
- pIC50 ([10]; Homo sapiens): 6.72
- pIC50 [10]: 6.55
- survival / response of HepG2 mouse xenograft (HepG2 murine xenografts): no increase in survival; also recorded: continued to be resistant
- pIC50 [11]: 6.04
- sensitivity of HepG2 ex ovo ([5]; FIG. 16D, CAM xenograft, osmotic bead delivery, 72 hours): insensitive at any concentration
- dose-response in HepG2 xenograft CAM assay [5]: dose-response relationship can be observed
- tumor growth of HB243 mouse xenograft relative to the control group (HB243 murine xenografts; FIG. 16E): statistically significant reduction in growth
- treatment mice surviving to the endpoint longer than control (average) (HB243 murine xenografts; HB243 mouse xenograft, vs vehicle): 4.5 days
- survival of HB243 murine xenografts, treatment vs control, p (Mantel-Cox test) (HB243 murine xenografts; n=4, event = tumor volume equal or greater than 0.75 cc, intraperitoneal): 0.031
- pIC50 (HB282 CAM xenograft): 5.98
- pIC50 [12]: 6.29
- pIC50 (HB243 CAM xenograft): 5.84
